These are literature values, as cited in article PMC5742115, “Pharmacophore Modeling and in Silico/in Vitro Screening for Human Cytochrome P450 11B1 and Cytochrome P450 11B2 Inhibitors” (Frontiers in Chemistry, 2017).

For series [1], the system named is CYP11B2. The following applies: reported activity, supplementary Table 1, read-out: CYP11B2 IC50, cited from earlier work.
Series [2] deals with CYP11B1. The following applies: reported activity, supplementary Table 1, read-out: CYP11B1 IC50, cited from earlier work.

pIC50: −log10 of the molar value. Where two headings read alike, the source gives them in different places.

In general, pIC50 refers to the IC50 on a negative log10 scale, so that one unit is a factor of ten. Consider `COc1cncc(-c2cc3ccc(OC)cc3cc2C)c1` [CHEMBL502818], for which the pIC50 in series [1] (ref Heim et al., 2008) was 8.42; in series [2] (ref Heim et al., 2008), 6.06.

Take `COc1ccc2cc(-c3cncc(C(C)=O)c3)ccc2c1` [CHEMBL502824]: the pIC50 in series [1] (ref Heim et al., 2008) was 8.68; in series [2] (ref Heim et al., 2008), 6.59.

Consider `S=C1CCc2cc(-c3cccnc3)cc(Cl)c2N1` [CHEMBL508155], for which the pIC50 is 8.38 in series [1] (ref Lucas et al., 2008b) and 6.11 in series [2] (ref Lucas et al., 2008b).

As to `O=C1CSc2cc(-c3cccnc3)ccc2N1` [CHEMBL509971], the pIC50 was 7.92 in series [1] (ref Lucas et al., 2008b) and 6.28 in series [2] (ref Lucas et al., 2008b).

In the case of `S=C1CCc2cc(-c3cccnc3)ccc2N1` [CHEMBL511329], the negative-log IC50 (pIC50) in series [1] (ref Lucas et al., 2008b) was 8.51; in series [2] (ref Lucas et al., 2008b), 6.24.

`COc1ccc2cc(-c3cncc4ccccc34)c(C)cc2c1` [CHEMBL525785]: the pIC50 in series [1] (ref Heim et al., 2008) was 8.51; in series [2] (ref Heim et al., 2008) it was 6.07.

On to `COC(=O)Cc1cncc(-c2ccc3cc(OC)ccc3c2)c1` [CHEMBL526339], for which the pIC50 in series [1] (ref Heim et al., 2008) is 8.16; in series [2] (ref Heim et al., 2008), 6.70.

For `COC(=O)CCc1cncn1Cc1ccc(C#N)cc1` [CHEMBL591229], the pIC50 was 8.46 in series [1] (ref Roumen et al., 2010) and 7.51 in series [2] (ref Roumen et al., 2010).

As for `OCCCc1cncn1Cc1ccc(F)cc1` [CHEMBL591465], the pIC50 in series [1] (ref Roumen et al., 2010) is 7.80; in series [2] (ref Roumen et al., 2010) it was 6.94.

In the case of `COc1ccc(Cn2cncc2-c2ccccc2)cc1` [CHEMBL591697], the pIC50 in series [1] (ref Roumen et al., 2010) was 7.85; in series [2] (ref Roumen et al., 2010) it was 7.96.

With `COC(=O)c1cncn1Cc1ccc(C#N)cc1` [CHEMBL591698], the pIC50 in series [1] (ref Roumen et al., 2010) was 8.15; in series [2] (ref Roumen et al., 2010) it was 7.32.

In the case of `COC(=O)CCc1cncn1Cc1ccc(Br)cc1` [CHEMBL592614], the negative logarithm of the IC50 (pIC50) in series [1] (ref Roumen et al., 2010) is 8.40; in series [2] (ref Roumen et al., 2010) it was 7.24.

Turning to `Clc1ccc(Cn2cncc2-c2ccccc2)cc1` [CHEMBL597101], the pIC50 in series [1] (ref Roumen et al., 2010) was 8.24; in series [2] (ref Roumen et al., 2010) it was 7.60.

On to `Brc1ccc(Cn2cncc2-c2ccccc2)cc1` [CHEMBL597173], for which the pIC50 in series [1] (ref Roumen et al., 2010) is 8.29; in series [2] (ref Roumen et al., 2010) it was 8.15.

In the case of `N#Cc1ccc(Cn2cncc2-c2ccccc2)cc1` [CHEMBL597578], the pIC50 in series [1] (ref Roumen et al., 2010) was 8.77; in series [2] (ref Roumen et al., 2010), 7.55.

As to `N#Cc1ccc(Cn2cncc2CCCO)cc1` [CHEMBL598399], the pIC50 is 7.89 in series [1] (ref Roumen et al., 2010) and 7.32 in series [2] (ref Roumen et al., 2010).

`OCCCc1cncn1Cc1ccc(Cl)cc1` [CHEMBL598606]: the pIC50 in series [1] (ref Roumen et al., 2010) was 7.26; in series [2] (ref Roumen et al., 2010), 7.36.

Take `N#Cc1ccc(Cn2cncc2-c2cccc(F)c2)cc1` [CHEMBL598789]: the pIC50 in series [1] (ref Roumen et al., 2010) was 8.26; in series [2] (ref Roumen et al., 2010), 7.49.

As for `N#Cc1ccc(Cn2cncc2-c2ccc(F)cc2)cc1` [CHEMBL598790], the pIC50 in series [1] (ref Roumen et al., 2010) is 7.60; in series [2] (ref Roumen et al., 2010), 7.57.

For the compound `OCCCc1cncn1Cc1ccc(Br)cc1` [CHEMBL598810], the pIC50 was 8.21 in series [1] (ref Roumen et al., 2010) and 7.74 in series [2] (ref Roumen et al., 2010).

On to `COC(=O)OCc1cncn1Cc1ccc(C#N)cc1` [CHEMBL599222], for which the pIC50 is 7.36 in series [1] (ref Roumen et al., 2010) and 6.67 in series [2] (ref Roumen et al., 2010).

Regarding `N#Cc1ccc(Cn2cncc2Br)cc1` [CHEMBL599223], the pIC50 is 7.64 in series [1] (ref Roumen et al., 2010) and 7.14 in series [2] (ref Roumen et al., 2010).

For the compound `N#Cc1ccc(Cn2cncc2CO)cc1` [CHEMBL599601], the pIC50 is 7.54 in series [1] (ref Roumen et al., 2010) and 6.55 in series [2] (ref Roumen et al., 2010).

For the compound `N#Cc1ccc(Cn2cncc2-c2ccccc2F)cc1` [CHEMBL599603], the pIC50 was 8.64 in series [1] (ref Roumen et al., 2010) and 7.70 in series [2] (ref Roumen et al., 2010).

As for `COC(=O)CCc1cncn1Cc1ccc(F)cc1` [CHEMBL599622], the pIC50 in series [1] (ref Roumen et al., 2010) was 7.30; in series [2] (ref Roumen et al., 2010) it was 6.98.

As to `Cc1cccc(-c2cncn2Cc2ccc(C#N)cc2)c1` [CHEMBL607862], the pIC50 in series [1] (ref Roumen et al., 2010) was 8.28; in series [2] (ref Roumen et al., 2010), 8.21.

As to `Fc1ccc(Cn2cncc2-c2ccccc2)cc1` [CHEMBL610501], the pIC50 in series [1] (ref Roumen et al., 2010) is 7.96; in series [2] (ref Roumen et al., 2010), 7.80.

With `Cc1ccccc1-c1cncn1Cc1ccc(C#N)cc1` [CHEMBL610513], the pIC50 in series [1] (ref Roumen et al., 2010) is 8.43; in series [2] (ref Roumen et al., 2010), 8.24.

For `N#Cc1ccc(Cn2cncc2C=O)cc1` [CHEMBL611680], the pIC50 in series [1] (ref Roumen et al., 2010) was 7.21; in series [2] (ref Roumen et al., 2010), 6.32.

As for `O=c1c2ccccc2oc2cccc(Cn3ccnc3)c12` [CHEMBL1083652], the pIC50 in series [1] (ref Gobbi et al., 2013) is 6.94; in series [2] (ref Gobbi et al., 2013), 7.00.

Turning to `c1ccc(-c2ccc(Cn3ccnc3)cc2)cc1` [CHEMBL1235146], the pIC50 is 6.20 in series [1] (ref Hille et al., 2011b) and 7.49 in series [2] (ref Hille et al., 2011b).

`Cc1cc(C)c(Cn2ccnc2)c(C)c1` [CHEMBL1649605]: the pIC50 was 7.52 in series [1] (ref Hille et al., 2011b) and 7.62 in series [2] (ref Hille et al., 2011b).

Take `Cc1ccccc1Cn1ccnc1` [CHEMBL1651492]: the pIC50 in series [1] (ref Hille et al., 2011b) was 7.21; in series [2] (ref Hille et al., 2011b), 7.21.

For `Cc1cccc(Cn2ccnc2)c1` [CHEMBL1651493], the pIC50 in series [1] (ref Hille et al., 2011b) was 6.96; in series [2] (ref Hille et al., 2011b), 7.32.

Take `Cc1cc(C)cc(Cn2ccnc2)c1` [CHEMBL1651494]: the pIC50 is 7.11 in series [1] (ref Hille et al., 2011b) and 7.49 in series [2] (ref Hille et al., 2011b).

In the case of `Cc1c(C)c(C)c(Cn2ccnc2)c(C)c1C` [CHEMBL1651495], the pIC50 in series [1] (ref Hille et al., 2011b) is 7.64; in series [2] (ref Hille et al., 2011b), 8.30.

Turning to `c1ccc(-c2ccccc2Cn2ccnc2)cc1` [CHEMBL1651496], the pIC50 in series [1] (ref Hille et al., 2011b) was 7.41; in series [2] (ref Hille et al., 2011b), 7.82.

On to `c1ccc(-c2cccc(Cn3ccnc3)c2)cc1` [CHEMBL1651497], for which the pIC50 in series [1] (ref Hille et al., 2011b) is 6.58; in series [2] (ref Hille et al., 2011b), 7.34.

Turning to `c1cn(CC23CC4CC(CC(C4)C2)C3)cn1` [CHEMBL1651505], the pIC50 in series [1] (ref Hille et al., 2011b) is 7.52; in series [2] (ref Hille et al., 2011b), 8.30.

Turning to `c1ccc(C(c2ccccc2)(c2ccccc2)n2ccnc2)cc1` [CHEMBL1651507], the pIC50 in series [1] (ref Hille et al., 2011b) is 7.96; in series [2] (ref Hille et al., 2011b), 8.52.

Take `c1ccc(C(Cn2ccnc2)(c2ccccc2)c2ccccc2)cc1` [CHEMBL1651508]: the pIC50 in series [1] (ref Hille et al., 2011b) was 8.10; in series [2] (ref Hille et al., 2011b) it was 8.40.

`c1ccc(C(CCn2ccnc2)(c2ccccc2)c2ccccc2)cc1` [CHEMBL1651509]: the pIC50 is 6.54 in series [1] (ref Hille et al., 2011b) and 7.10 in series [2] (ref Hille et al., 2011b).

`c1ccc(-c2ccc(Cn3ccnc3)o2)cc1` [CHEMBL1651513]: the pIC50 was 6.43 in series [1] (ref Hille et al., 2011b) and 7.34 in series [2] (ref Hille et al., 2011b).

`c1ccc(-c2ccc(Cn3ccnc3)s2)cc1` [CHEMBL1651514]: the pIC50 in series [1] (ref Hille et al., 2011b) was 6.45; in series [2] (ref Hille et al., 2011b), 7.37.

In the case of `O=C1CCc2cc(-c3cccnc3)cc3c2N1CC3` [CHEMBL1765205], the pIC50 in series [1] (ref Lucas et al., 2011) was 8.96; in series [2] (ref Lucas et al., 2011), 6.15.

For `O=C1CCc2cc(-c3cccnc3)cc3c2N1CCC3` [CHEMBL1765206], the pIC50 in series [1] (ref Lucas et al., 2011) is 8.62; in series [2] (ref Lucas et al., 2011), 5.64.

For the compound `COc1cncc(-c2cc3c4c(c2)CCN4C(=O)CC3)c1` [CHEMBL1765207], the negative logarithm of the IC50 (pIC50) was 9.22 in series [1] (ref Lucas et al., 2011) and 6.61 in series [2] (ref Lucas et al., 2011).

On to `COc1cncc(-c2cc3c4c(c2)CCC(=O)N4CCC3)c1` [CHEMBL1765208], for which the pIC50 in series [1] (ref Lucas et al., 2011) is 9.05; in series [2] (ref Lucas et al., 2011) it was 6.26.

In the case of `CCOc1cncc(-c2cc3c4c(c2)CCN4C(=O)CC3)c1` [CHEMBL1765209], the pIC50 is 9.00 in series [1] (ref Lucas et al., 2011) and 6.80 in series [2] (ref Lucas et al., 2011).

As to `CC(C)Oc1cncc(-c2cc3c4c(c2)CCN4C(=O)CC3)c1` [CHEMBL1765210], the pIC50 in series [1] (ref Lucas et al., 2011) was 8.66; in series [2] (ref Lucas et al., 2011) it was 6.99.

For the compound `O=C1CCc2cc(-c3cncc(O)c3)cc3c2N1CC3` [CHEMBL1765211], the pIC50 in series [1] (ref Lucas et al., 2011) is 8.37; in series [2] (ref Lucas et al., 2011), 5.69.
